Laboratory results from ChEMBL document CHEMBL5036349, “Development of potent dual PDK1/AurA kinase inhibitors for cancer therapy: Lead-optimization, structural insights, and ADME-Tox profile” (Eur J Med Chem, 2021).

Assays:
[1] = target: 3',5'-cyclic-AMP phosphodiesterase 4C (Homo sapiens) (UniProt Q08493); experiment: Inhibition of PDE4C1 (unknown origin) at 10 uM incubated for 60 mins followed by addition of binding agent and measured after 20 mins by Fluorescence Polarization assay relative to control; details: time 80.0 min
Sequence of 3',5'-cyclic-AMP phosphodiesterase 4C (Homo sapiens) (Q08493 whole entry): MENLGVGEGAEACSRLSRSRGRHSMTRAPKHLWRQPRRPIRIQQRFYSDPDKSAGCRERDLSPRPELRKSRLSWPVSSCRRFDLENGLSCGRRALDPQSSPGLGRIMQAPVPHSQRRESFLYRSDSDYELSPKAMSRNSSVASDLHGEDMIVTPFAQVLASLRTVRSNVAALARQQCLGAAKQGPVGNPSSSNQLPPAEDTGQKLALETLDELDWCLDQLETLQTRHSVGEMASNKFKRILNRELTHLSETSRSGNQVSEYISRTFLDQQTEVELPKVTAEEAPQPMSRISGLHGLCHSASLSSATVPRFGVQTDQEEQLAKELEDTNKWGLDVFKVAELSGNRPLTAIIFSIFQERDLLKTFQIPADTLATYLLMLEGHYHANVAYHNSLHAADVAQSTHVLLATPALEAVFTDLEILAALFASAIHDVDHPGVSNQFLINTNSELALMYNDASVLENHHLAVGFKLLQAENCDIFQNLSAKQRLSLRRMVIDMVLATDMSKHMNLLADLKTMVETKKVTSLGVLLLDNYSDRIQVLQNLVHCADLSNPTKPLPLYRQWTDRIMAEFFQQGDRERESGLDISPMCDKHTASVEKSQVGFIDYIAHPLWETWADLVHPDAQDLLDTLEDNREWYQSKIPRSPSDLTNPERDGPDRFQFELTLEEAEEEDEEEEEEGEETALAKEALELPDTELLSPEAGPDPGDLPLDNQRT

Aurora kinase A = target: T1, Aurora kinase A (Homo sapiens, UniProt O14965); experiment: Inhibition of recombinant full length human His-tagged AURA expressed in Baculovirus expression system in presence of ATP measured by […]
T1 sequence (O14965 whole entry): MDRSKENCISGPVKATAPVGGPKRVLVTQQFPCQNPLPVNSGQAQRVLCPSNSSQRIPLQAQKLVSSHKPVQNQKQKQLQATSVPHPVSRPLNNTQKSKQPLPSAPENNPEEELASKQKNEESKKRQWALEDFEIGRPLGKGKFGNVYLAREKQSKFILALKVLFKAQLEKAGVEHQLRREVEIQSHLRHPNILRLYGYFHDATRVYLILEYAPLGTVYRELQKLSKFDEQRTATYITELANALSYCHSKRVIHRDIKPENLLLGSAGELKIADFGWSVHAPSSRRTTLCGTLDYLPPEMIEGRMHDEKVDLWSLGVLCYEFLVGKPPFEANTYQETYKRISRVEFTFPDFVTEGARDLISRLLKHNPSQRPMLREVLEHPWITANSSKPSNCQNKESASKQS

[2] = target: T2, NAD-dependent protein deacetylase sirtuin-7 (Homo sapiens) (UniProt Q9NRC8); experiment: Inhibition of human recombinant SIRT7 at 10 uM incubated for 20 mins followed by mixing and measure after 30 mins by Luminescence assay relative to control; details: time 50.0 min
T2 sequence (whole entry): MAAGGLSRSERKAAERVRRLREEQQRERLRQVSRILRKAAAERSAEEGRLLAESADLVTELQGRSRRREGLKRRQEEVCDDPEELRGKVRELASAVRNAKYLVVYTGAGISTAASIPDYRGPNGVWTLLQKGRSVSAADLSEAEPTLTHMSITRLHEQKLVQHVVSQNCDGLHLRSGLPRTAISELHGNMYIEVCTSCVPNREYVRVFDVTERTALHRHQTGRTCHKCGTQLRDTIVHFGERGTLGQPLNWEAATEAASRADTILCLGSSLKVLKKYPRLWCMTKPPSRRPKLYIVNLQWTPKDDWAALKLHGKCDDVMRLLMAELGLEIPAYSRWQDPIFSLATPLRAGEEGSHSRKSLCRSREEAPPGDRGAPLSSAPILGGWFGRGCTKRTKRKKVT

[3] = target: Histone deacetylase 9 (Homo sapiens) (UniProt Q9UKV0); experiment: Inhibition on human recombinant HDAC9 at 10 uM measured after 20 min by luminescence glo assay
Sequence of Histone deacetylase 9 (Homo sapiens) (Q9UKV0 whole entry): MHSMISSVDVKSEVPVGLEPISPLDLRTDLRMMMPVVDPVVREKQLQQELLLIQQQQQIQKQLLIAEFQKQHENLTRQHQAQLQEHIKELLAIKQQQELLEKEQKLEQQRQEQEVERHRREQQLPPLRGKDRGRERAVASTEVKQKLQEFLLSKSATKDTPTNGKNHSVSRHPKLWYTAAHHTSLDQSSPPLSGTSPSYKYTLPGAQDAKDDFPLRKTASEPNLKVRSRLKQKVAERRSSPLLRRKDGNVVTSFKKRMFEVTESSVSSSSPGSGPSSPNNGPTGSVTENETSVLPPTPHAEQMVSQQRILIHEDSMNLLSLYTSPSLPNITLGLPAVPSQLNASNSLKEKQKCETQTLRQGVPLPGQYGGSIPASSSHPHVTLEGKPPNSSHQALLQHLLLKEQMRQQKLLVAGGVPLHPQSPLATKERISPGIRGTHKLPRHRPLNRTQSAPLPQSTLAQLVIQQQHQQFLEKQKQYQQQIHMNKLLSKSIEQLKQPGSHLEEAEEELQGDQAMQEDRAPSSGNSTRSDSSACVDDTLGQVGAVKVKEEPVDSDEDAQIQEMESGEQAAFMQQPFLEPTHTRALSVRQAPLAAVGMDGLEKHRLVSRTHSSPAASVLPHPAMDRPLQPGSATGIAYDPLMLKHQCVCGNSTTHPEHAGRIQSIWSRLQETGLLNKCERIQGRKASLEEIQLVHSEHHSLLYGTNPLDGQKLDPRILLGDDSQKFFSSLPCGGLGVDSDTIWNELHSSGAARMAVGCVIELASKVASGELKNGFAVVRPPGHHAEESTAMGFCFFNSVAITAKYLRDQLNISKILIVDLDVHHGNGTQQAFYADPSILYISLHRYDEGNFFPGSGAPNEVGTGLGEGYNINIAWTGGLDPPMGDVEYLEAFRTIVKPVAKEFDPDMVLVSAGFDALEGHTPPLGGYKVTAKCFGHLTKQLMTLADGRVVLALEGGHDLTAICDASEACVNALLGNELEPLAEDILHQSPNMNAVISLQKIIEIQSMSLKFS

[4] = target: Aurora kinase B (Homo sapiens) (UniProt Q96GD4); experiment: Inhibition of Aurora B kinase (unknown origin) at 10 uM in presence of ATP incubated for 30 min followed by addition of kinase glo-reagent measured after 20 mins by Luminescence based plate reader assay relative to control; details: time 50.0 min
Sequence of Aurora kinase B (Homo sapiens) (Q96GD4 whole entry): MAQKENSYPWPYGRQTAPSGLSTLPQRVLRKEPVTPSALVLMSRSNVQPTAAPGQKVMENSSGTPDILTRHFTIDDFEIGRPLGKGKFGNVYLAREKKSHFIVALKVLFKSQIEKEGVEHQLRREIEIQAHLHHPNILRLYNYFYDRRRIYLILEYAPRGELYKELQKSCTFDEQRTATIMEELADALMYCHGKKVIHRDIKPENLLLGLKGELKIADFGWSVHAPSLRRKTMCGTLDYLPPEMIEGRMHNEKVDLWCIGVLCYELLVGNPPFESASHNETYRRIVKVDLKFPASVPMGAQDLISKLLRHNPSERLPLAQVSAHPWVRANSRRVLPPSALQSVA

[5] = target: T3, Protein deacetylase HDAC6 (Homo sapiens) (UniProt Q9UBN7); experiment: Inhibition on human recombinant HDAC6 at 10 uM measured after 20 min by luminescence glo assay
T3 sequence (whole entry): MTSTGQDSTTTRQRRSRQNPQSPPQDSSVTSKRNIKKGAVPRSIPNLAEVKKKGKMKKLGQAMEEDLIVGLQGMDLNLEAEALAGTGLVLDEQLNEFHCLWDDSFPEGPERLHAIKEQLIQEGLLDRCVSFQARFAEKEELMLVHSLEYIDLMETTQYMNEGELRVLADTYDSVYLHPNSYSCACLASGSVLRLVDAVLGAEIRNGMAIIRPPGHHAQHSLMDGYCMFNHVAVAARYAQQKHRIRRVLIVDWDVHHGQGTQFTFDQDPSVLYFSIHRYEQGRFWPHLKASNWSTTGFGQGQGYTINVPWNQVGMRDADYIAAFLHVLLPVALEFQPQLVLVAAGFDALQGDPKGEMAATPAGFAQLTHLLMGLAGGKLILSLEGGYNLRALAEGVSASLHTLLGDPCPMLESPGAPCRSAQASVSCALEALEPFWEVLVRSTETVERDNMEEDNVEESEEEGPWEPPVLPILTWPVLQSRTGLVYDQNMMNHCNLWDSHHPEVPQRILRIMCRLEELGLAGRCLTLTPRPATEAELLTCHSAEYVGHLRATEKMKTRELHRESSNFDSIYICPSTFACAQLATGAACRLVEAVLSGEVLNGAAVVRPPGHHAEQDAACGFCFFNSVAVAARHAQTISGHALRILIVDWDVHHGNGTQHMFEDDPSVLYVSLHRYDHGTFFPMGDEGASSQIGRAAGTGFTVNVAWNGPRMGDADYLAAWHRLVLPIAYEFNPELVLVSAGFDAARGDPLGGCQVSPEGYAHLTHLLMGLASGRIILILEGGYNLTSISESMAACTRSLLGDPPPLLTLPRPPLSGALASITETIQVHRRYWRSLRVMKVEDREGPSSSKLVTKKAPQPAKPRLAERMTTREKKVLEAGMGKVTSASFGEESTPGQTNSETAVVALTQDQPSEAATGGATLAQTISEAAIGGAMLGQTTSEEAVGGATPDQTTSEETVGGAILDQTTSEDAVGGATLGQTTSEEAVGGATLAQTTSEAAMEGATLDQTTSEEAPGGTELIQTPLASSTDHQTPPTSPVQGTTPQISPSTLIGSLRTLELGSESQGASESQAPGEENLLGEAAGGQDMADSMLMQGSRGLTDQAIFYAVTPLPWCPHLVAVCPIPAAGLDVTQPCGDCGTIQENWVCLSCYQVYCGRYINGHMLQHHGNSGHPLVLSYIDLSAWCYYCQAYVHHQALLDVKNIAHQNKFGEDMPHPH

HEK293 = experiment: Cytotoxicity against HEK293 cells at 10 uM measured after 24 to 48 hrs by Cell-titer glo assay relative to control; type: cell-based; details: human, hek293, 10 µM, time 24-48 hrs
[6] = Cytotoxicity against hTERT cells at 10 uM measured after 24 to 48 hrs by Cell-titer glo assay relative to control; type: cell-based; details: human, time 24-48 hrs
[7] = target: Histone deacetylase 4 (Homo sapiens) (UniProt P56524); experiment: Inhibition on human recombinant HDAC4 at 10 uM measured after 20 min by luminescence glo assay
Sequence of Histone deacetylase 4 (Homo sapiens) (P56524 whole entry): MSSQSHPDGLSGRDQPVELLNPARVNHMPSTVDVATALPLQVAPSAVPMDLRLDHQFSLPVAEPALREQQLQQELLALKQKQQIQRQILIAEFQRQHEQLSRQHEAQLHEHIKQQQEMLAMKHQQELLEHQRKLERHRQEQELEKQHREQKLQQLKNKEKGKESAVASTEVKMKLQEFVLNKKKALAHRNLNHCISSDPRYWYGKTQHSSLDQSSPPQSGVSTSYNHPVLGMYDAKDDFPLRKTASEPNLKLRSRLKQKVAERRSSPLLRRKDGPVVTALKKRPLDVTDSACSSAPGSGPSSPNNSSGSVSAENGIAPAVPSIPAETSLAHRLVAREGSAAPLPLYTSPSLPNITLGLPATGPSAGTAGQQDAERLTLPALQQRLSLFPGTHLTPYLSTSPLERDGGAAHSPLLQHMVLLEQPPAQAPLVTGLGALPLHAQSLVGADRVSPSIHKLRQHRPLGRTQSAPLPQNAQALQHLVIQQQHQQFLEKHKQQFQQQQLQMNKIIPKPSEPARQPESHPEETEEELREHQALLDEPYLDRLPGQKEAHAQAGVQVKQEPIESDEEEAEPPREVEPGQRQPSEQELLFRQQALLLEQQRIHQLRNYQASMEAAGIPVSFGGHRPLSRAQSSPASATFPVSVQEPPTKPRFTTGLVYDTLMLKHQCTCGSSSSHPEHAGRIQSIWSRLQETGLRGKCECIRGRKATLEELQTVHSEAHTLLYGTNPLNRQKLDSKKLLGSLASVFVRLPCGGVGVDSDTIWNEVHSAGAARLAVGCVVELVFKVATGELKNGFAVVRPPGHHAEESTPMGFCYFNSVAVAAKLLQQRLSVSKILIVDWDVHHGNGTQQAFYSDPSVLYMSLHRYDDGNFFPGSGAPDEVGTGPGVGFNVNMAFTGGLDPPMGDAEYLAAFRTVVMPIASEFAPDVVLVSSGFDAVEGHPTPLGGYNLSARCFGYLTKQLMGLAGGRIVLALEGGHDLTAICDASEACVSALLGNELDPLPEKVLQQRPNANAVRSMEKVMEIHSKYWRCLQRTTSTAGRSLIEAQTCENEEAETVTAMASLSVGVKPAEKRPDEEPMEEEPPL

[8] = target: T4, Histone deacetylase 8 (Homo sapiens) (UniProt Q9BY41); experiment: Inhibition on human recombinant HDAC8 at 10 uM measured after 20 min by luminescence glo assay
T4 sequence (whole entry): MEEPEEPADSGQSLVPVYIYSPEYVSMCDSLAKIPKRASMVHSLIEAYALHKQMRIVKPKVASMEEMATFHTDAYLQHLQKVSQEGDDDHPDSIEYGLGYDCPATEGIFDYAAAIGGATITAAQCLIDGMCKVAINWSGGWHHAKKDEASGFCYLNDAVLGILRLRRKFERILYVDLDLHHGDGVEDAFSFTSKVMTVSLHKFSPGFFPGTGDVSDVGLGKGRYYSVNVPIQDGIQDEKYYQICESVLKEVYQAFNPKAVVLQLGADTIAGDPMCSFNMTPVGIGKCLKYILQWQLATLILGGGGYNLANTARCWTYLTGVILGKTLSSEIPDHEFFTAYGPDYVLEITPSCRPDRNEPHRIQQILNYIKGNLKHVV

[9] = target: 3-phosphoinositide-dependent protein kinase 1 (Homo sapiens) (UniProt O15530); experiment: Inhibition of recombinant full length human His-tagged PDK1 expressed in Baculovirus expression system in presence of ATP measured by […]
TC-32 [10] = experiment: Cytotoxicity against human TC-32 cells at 30 uM assessed as cell proliferation rate measured after 72 hrs by MTT assay relative to control; type: functional
[11] = Cytotoxicity against human 6647 cells measured after 72 hrs by MTT assay; type: functional, cell-based; details: Homo sapiens, 6647, 72 h
Rec1 = experiment: Cytotoxicity against human REC1 cells measured after 72 hrs by MTT assay; type: functional, cell-based; details: Rec1, 72 h
NCI-H82 = experiment: Cytotoxicity against human NCI-H82 cells measured after 72 hrs by MTT assay; type: functional, cell-based; details: NCI-H82, 72 h
MCF7 = experiment: Cytotoxicity against human MCF7 cells measured after 72 hrs by MTT assay; type: functional, cell-based; details: MCF7, 72 h
NCI-H69 [12] = experiment: Cytotoxicity against human NCI-H69 cells at 30 uM assessed as cell proliferation rate measured after 72 hrs by MTT assay relative to control; type: functional
CAKI-1 = experiment: Cytotoxicity against human CAKI-1 cells measured after 72 hrs by MTT assay; type: functional, cell-based; details: CAKI-1, 72 h
IGROV-1 = experiment: Cytotoxicity against human IGROV-1 cells measured after 72 hrs by MTT assay; type: functional, cell-based; details: IGROV-1, 72 h
SK-N-MC = experiment: Cytotoxicity against human SK-N-MC cells measured after 72 hrs by MTT assay; type: functional, cell-based
A673 = experiment: Cytotoxicity against human A673 cells measured after 72 hrs by MTT assay; type: functional, cell-based; details: A673, 72 h
NCI-H69 [13] = experiment: Cytotoxicity against human NCI-H69 cells measured after 72 hrs by MTT assay; type: functional, cell-based; details: NCI-H69, 72 h
786-0 = experiment: Cytotoxicity against human 786-0 cells measured after 72 hrs by MTT assay; type: functional, cell-based; details: 786-0, 72 h
PC-3 = experiment: Cytotoxicity against human PC-3 cells measured after 72 hrs by MTT assay; type: functional, cell-based; details: PC-3, 72 h
[14] = Cytotoxicity against human TC71 cells measured after 72 hrs by MTT assay; type: functional, cell-based; details: TC-71, 72 h
HCT-116 = experiment: Cytotoxicity against human HCT-116 cells measured after 72 hrs by MTT assay; type: functional, cell-based; details: HCT-116, 72 h
TC-32 [15] = experiment: Cytotoxicity against human TC-32 cells measured after 72 hrs by MTT assay; type: functional, cell-based; details: TC-32, 72 h
[16] = target: {'v': 'hERG (KCNH2)', 'o': 'p', 'q': 'Inhibition of human ERG at 10 uM'} (Homo sapiens, UniProt Q12809); experiment: Inhibition of human ERG at 10 uM relative to control
Sequence of {'v': 'hERG (KCNH2)', 'o': 'p', 'q': 'Inhibition of human ERG at 10 uM'} (Q12809 whole entry): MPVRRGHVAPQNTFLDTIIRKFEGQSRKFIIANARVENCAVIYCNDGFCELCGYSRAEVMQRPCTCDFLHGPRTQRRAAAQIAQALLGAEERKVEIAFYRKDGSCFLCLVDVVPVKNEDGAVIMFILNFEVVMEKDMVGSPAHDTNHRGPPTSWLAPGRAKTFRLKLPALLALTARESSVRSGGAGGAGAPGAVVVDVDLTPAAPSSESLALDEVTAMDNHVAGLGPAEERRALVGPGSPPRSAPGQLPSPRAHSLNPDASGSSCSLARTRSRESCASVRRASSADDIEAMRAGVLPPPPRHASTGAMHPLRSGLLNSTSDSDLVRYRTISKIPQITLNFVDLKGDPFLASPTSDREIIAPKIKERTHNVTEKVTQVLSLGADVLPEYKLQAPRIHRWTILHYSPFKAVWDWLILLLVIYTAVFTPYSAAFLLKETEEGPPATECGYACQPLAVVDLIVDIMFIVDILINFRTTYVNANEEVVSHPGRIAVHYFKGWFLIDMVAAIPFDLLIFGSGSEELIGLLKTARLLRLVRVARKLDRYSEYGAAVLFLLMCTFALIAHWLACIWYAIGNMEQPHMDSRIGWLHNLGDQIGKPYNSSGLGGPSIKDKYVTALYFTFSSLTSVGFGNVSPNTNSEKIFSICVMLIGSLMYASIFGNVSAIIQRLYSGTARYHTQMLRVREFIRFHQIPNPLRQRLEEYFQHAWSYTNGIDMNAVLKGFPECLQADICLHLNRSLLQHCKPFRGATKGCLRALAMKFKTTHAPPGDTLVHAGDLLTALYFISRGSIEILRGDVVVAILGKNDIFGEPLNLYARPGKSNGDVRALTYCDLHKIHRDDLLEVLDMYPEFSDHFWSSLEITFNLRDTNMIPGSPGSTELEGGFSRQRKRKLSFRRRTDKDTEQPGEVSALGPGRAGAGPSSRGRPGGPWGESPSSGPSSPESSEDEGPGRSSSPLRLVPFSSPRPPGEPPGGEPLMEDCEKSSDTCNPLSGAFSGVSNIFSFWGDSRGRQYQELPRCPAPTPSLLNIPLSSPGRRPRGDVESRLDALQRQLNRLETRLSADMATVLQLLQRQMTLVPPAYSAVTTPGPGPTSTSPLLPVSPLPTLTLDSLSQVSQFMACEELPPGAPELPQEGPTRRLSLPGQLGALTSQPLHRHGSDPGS

Cc1c(Br)cc(C(=O)NCC(=O)Nc2ccc3c(c2)/C(=C/c2cnc[nH]2)C(=O)N3)c(=O)n1Cc1ccc(F)c(F)c1
inhibition [1]: < 30% | IC50 (Aurora kinase A; read-out: IC50): > 10 µM | inhibition [2]: < 30% | inhibition [3]: < 30% | inhibition [4]: < 20% | inhibition [5]: < 30% | Activity (HEK293): < 25% | Activity [6]: < 25% | inhibition [7]: < 30% | inhibition [8]: < 30%

CCN(C)CC(=O)c1c[nH]c2ccc(NC(=O)[C@H](NC(=O)c3cccn(Cc4ccc(F)c(F)c4)c3=O)c3ccccc3)cc12
IC50 [9]: Not Active | IC50 (Aurora kinase A): Not Active

CN1CCN(CC(=O)c2c[nH]c3ccc(NC(=O)[C@H](NC(=O)c4cccn(Cc5ccc(F)c(F)c5)c4=O)c4ccccc4)cc23)CC1
IC50 [9]: Not Active | IC50 (Aurora kinase A): Not Active

O=C(CCCNC(=O)c1cccn(Cc2ccc(F)c(F)c2)c1=O)Nc1ccc2c(c1)C(=Cc1cccs1)C(=O)N2
IC50 (Aurora kinase A): Not Active

O=C(N[C@@H](COc1ccc2[nH]c(=O)[nH]c2c1)c1ccccc1)c1cccn(Cc2ccc(F)c(F)c2)c1=O
Emax at 30 µM (TC-32 [10]): 80% | IC50 [11]: > 30 µM | IC50 (Rec1): > 30 µM | IC50 (NCI-H82): > 30 µM | IC50 (MCF7): > 30 µM | Emax at 30 µM (NCI-H69 [12]): 80% | IC50 (CAKI-1): > 30 µM | IC50 (IGROV-1): > 30 µM | IC50 (SK-N-MC): > 30 µM | IC50 (A673): > 30 µM | IC50 (NCI-H69 [13]): 13.9 µM | IC50 (786-0): > 30 µM | IC50 (PC-3): > 30 µM | IC50 [14]: > 30 µM | IC50 (HCT-116): > 30 µM | IC50 (TC-32 [15]): 13.9 µM

O=C1Nc2ccc(NC(=O)c3cccc(NC(=O)c4cccn(Cc5ccc(F)c(F)c5)c4=O)c3)cc2/C1=C/c1cnc[nH]1
inhibition [1]: < 30% | IC50 (Aurora kinase A; read-out: IC50): > 10 µM | inhibition [2]: < 30% | inhibition [3]: < 30% | inhibition [4]: < 20% | inhibition [5]: < 30% | Activity (HEK293): < 25% | Activity [6]: < 25% | inhibition [7]: < 30% | inhibition [8]: < 30%

O=C1Nc2ccc(NC(=O)c3cccc(NC(=O)c4cccn(Cc5ccc(F)c(F)c5)c4=O)c3)cc2C1=Cc1cccs1
IC50 [9]: Not Active | IC50 (Aurora kinase A): Not Active

O=C(CCNC(=O)c1cccn(Cc2ccc(F)c(F)c2)c1=O)Nc1ccc2c(c1)C(=Cc1cccs1)C(=O)N2
IC50 (Aurora kinase A): Not Active

O=C(CCCNC(=O)c1cccn(Cc2ccc(F)c(F)c2)c1=O)Nc1ccc2c(c1)/C(=C/c1cnc[nH]1)C(=O)N2
inhibition [1]: < 30% | inhibition [2]: < 30% | inhibition [3]: < 30% | inhibition [4]: < 20% | inhibition [5]: < 30% | Activity (HEK293): < 25% | inhibition at 10 µM [16]: 53% | Activity [6]: < 25% | inhibition [7]: < 30% | inhibition [8]: < 30%

O=C(CCNC(=O)c1cccn(Cc2ccc(F)c(F)c2)c1=O)Nc1ccc2c(c1)/C(=C/c1ncc[nH]1)C(=O)N2
IC50 (Aurora kinase A): Not Active

O=C(CCNC(=O)c1cccn(Cc2ccc(F)c(F)c2)c1=O)Nc1ccc2c(c1)/C(=C\c1ccc(F)cc1)C(=O)N2
IC50 [9]: Not Active | IC50 (Aurora kinase A): Not Active
